Among the data in patent publication US11713335B2, “Aminocoumarin compounds and methods of their use” (President and Fellows of Harvard College, priority 2018, dated 2023) are MIC values, retold here.

Common to all, as to assay type: cell-based
The subject of one assay is E. cloacae 13047. As to the kind of experiment: Minimal inhibitory concentration, E. cloacae 13047. The note with it: 16 hour minimal inhibitory concentration at 37° C., read-out: MIC (μM) E. cloacae 13047. In outline:
(§1)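 Broth microdilution, 2-fold series from DMSO stock; inoculum = saturated overnight culture (LB; TSA for S. aureus) diluted 1:100 then 1:100. 37 °C, 16 h, no shaking. OD600 read-out; MIC = lowest conc. inhibiting growth (µM).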

For a further assay, the system named is A. baumannii 19606. Nature of the assay: Minimal inhibitory concentration, A. baumannii 19606. The note with it: 16 hour minimal inhibitory concentration at 37° C., read-out: MIC (μM) A. baumannii 19606. In outline: as §1
The next assay relates to K. pneumoniae 700721. Nature of the assay: Minimal inhibitory concentration, K. pneumoniae 700721. The note with it: 16 hour minimal inhibitory concentration at 37° C., read-out: MIC (μM) K. pneumoniae 700721. In outline:
as §1

The test system of the next assay is S. aureus RN4220. Nature of the assay: Minimal inhibitory concentration, S. aureus RN4220. Conditions: 16 hour minimal inhibitory concentration at 37° C., read-out: MIC (μM) S. aureus RN4220. The method in brief: as §1
The subject of a further assay is E. coli 25922. Nature of the assay: Minimal inhibitory concentration, E. coli 25922. The note with it: 16 hour minimal inhibitory concentration at 37° C., read-out: MIC (μM) E. coli 25922. In outline:
as §1

The subject of a further assay is E. coli MC4100. Nature of the assay: Minimal inhibitory concentration, E. coli MC4100. The note with it: 16 hour minimal inhibitory concentration at 37° C., read-out: MIC (μM) E. coli MC4100 ara+. The method in brief:
as §1

The next assay deals with S. aureus MW2. Nature of the assay: Minimal inhibitory concentration, S. aureus MW2. Conditions: 16 hour minimal inhibitory concentration at 37° C., read-out: MIC (μM) S. aureus MW2 (MRSA). In outline: as §1
Where [1] appears, read: Acinetobacter baumannii, 19606, 16 h.
Setting [2] is: Staphylococcus aureus, RN4220, 16 h.
Where [3] appears, read: Staphylococcus aureus, MRSA, 16 h.

Values after ≈ are worked out from the molar mass of the structure shown. Read-outs that look alike come from different tables or passages of the source.

In general, MIC refers to the lowest concentration found to suppress growth. `CO[C@@H]1[C@@H](O)[C@@H](OC(=O)c2cccn2C)[C@H](Oc2ccc3c(O)c(NC(=O)c4ccc(O)c(CC=C(C)C)c4)c(=O)oc3c2C)OC1(C)C` [Compound 114]: the MIC with E. cloacae 13047 is above 100 µM; in the assay on A. baumannii 19606, above 50 µM; in the assay on K. pneumoniae 700721, above 100 µM; in the assay on S. aureus RN4220 it was 74 µM (≈ 50.1 µg/mL); in the assay on E. coli 25922, above 200 µM; in the assay on E. coli MC4100, above 200 µM. Moreover, in the assay on S. aureus MW2, the MIC is 74 µM (≈ 50.1 µg/mL).

As for `CO[C@@H]1[C@@H](OC(N)=O)[C@@H](O)[C@H](Oc2ccc3c(O)c(NC(=O)c4ccc(I)c(-c5ccccc5)c4)c(=O)oc3c2C)OC1(C)C` [Compound 227], the MIC was above 100 µM with E. cloacae 13047 (Enterobacter cloacae, 13047); above 50 µM in the assay with A. baumannii 19606 (setting [1]); 34 µM (≈ 24.8 µg/mL) with K. pneumoniae 700721 (Klebsiella pneumoniae, 700721); 4 µM (≈ 2.92 µg/mL) in the assay on S. aureus RN4220 (setting [2]); 34 µM (≈ 24.8 µg/mL) in the assay with E. coli 25922 (Escherichia coli, 25922, 16 h); 9 µM (≈ 6.57 µg/mL) in the assay on E. coli MC4100 (Escherichia coli, MC4100, 16 h). Further, the minimal inhibitory concentration (MIC) with S. aureus MW2 (setting [3]) is 4 µM (≈ 2.92 µg/mL).

Consider `C#CCOc1cccc(C(=O)Nc2c(O)c3ccc(O[C@@H]4OC(C)(C)[C@H](OC)[C@@H](OC(N)=O)[C@H]4O)c(C)c3oc2=O)c1` [Compound 230], for which the minimal inhibitory concentration (MIC) was above 100 µM in the assay on E. cloacae 13047 (Enterobacter cloacae, 13047); above 50 µM in the assay on A. baumannii 19606 (setting [1]); above 100 µM with K. pneumoniae 700721 (Klebsiella pneumoniae, 700721); 86 µM (≈ 50.1 µg/mL) with S. aureus RN4220 (setting [2]); 172 µM (≈ 100 µg/mL) in the assay on E. coli 25922 (Escherichia coli, 25922, 16 h); 86 µM (≈ 50.1 µg/mL) with E. coli MC4100 (Escherichia coli, MC4100, 16 h). Besides, the MIC in the assay with S. aureus MW2 (setting [3]) was 86 µM (≈ 50.1 µg/mL).

As to `CO[C@@H]1[C@@H](O)[C@@H](OC(=O)NC(C)C)[C@H](Oc2ccc3c(O)c(NC(=O)c4ccc(O)c(CC=C(C)C)c4)c(=O)oc3c2C)OC1(C)C` [Compound 105], the MIC with E. cloacae 13047 is listed as above 100 µM; with A. baumannii 19606 it was above 50 µM; in the assay with K. pneumoniae 700721 it was above 100 µM; in the assay on S. aureus RN4220 it was above 100 µM; in the assay on E. coli 25922, above 200 µM; in the assay with E. coli MC4100 it was above 200 µM. Also, the minimum inhibitory concentration (MIC) in the assay with S. aureus MW2 is above 100 µM.

Consider `CO[C@@H]1[C@@H](OC(N)=O)[C@@H](O)[C@H](Oc2ccc3c(O)c(NC(=O)c4cccc(Oc5ccc(Cl)cc5)c4)c(=O)oc3c2C)OC1(C)C` [Compound 243], for which the MIC in the assay with E. cloacae 13047 (Enterobacter cloacae, 13047) was above 100 µM; with A. baumannii 19606 (setting [1]), above 50 µM; with K. pneumoniae 700721 (Klebsiella pneumoniae, 700721), above 100 µM; in the assay on S. aureus RN4220 (setting [2]), 10 µM (≈ 6.55 µg/mL); in the assay with E. coli 25922 (Escherichia coli, 25922, 16 h), 38 µM (≈ 24.9 µg/mL); with E. coli MC4100 (Escherichia coli, MC4100, 16 h), 4.8 µM (≈ 3.14 µg/mL). For the same molecule, the MIC in the assay on S. aureus MW2 (setting [3]) was determined as 10 µM (≈ 6.55 µg/mL).

In the case of `CO[C@@H]1[C@@H](OC(N)=O)[C@@H](O)[C@H](Oc2ccc3c(O)c(NC(=O)c4cccc(Oc5ccccc5C)c4)c(=O)oc3c2C)OC1(C)C` [Compound 220], the MIC with E. cloacae 13047 (Enterobacter cloacae, 13047) was above 100 µM; with A. baumannii 19606 (setting [1]) it was above 50 µM; in the assay on K. pneumoniae 700721 (Klebsiella pneumoniae, 700721), above 100 µM; in the assay on S. aureus RN4220 (setting [2]) it was 10 µM (≈ 6.35 µg/mL); in the assay on E. coli 25922 (Escherichia coli, 25922, 16 h) it was 160 µM (≈ 102 µg/mL); in the assay on E. coli MC4100 (Escherichia coli, MC4100, 16 h), 158 µM (≈ 100 µg/mL). For the same molecule, the MIC with S. aureus MW2 (setting [3]) stood at 10 µM (≈ 6.35 µg/mL).

`CO[C@@H]1[C@@H](OC(N)=O)[C@@H](O)[C@H](Oc2ccc3c(O)c(NC(=O)c4cccc(Oc5ccc(C#N)cc5)c4)c(=O)oc3c2C)OC1(C)C` [Compound 242]: the MIC with E. cloacae 13047 (Enterobacter cloacae, 13047) is above 100 µM; with A. baumannii 19606 (setting [1]), above 50 µM; in the assay with K. pneumoniae 700721 (Klebsiella pneumoniae, 700721), above 100 µM; in the assay with S. aureus RN4220 (setting [2]), above 100 µM; with E. coli 25922 (Escherichia coli, 25922, 16 h) it was 154 µM (≈ 99.4 µg/mL); with E. coli MC4100 (Escherichia coli, MC4100, 16 h), 153 µM (≈ 98.8 µg/mL). Moreover, the MIC in the assay with S. aureus MW2 (setting [3]) was 77 µM (≈ 49.7 µg/mL).

On to `CO[C@@H]1[C@@H](OC(N)=O)[C@@H](O)[C@H](Oc2ccc3c(O)c(NC(=O)c4cc(Oc5ccccc5)c(O)cc4O)c(=O)oc3c2C)OC1(C)C` [Compound 244], for which the minimal inhibitory concentration (MIC) in the assay with E. cloacae 13047 (Enterobacter cloacae, 13047) was above 100 µM; in the assay with A. baumannii 19606 (setting [1]) it was above 50 µM; in the assay with K. pneumoniae 700721 (Klebsiella pneumoniae, 700721), 38 µM (≈ 24.8 µg/mL); with S. aureus RN4220 (setting [2]), 19 µM (≈ 12.4 µg/mL); in the assay with E. coli 25922 (Escherichia coli, 25922, 16 h), 38 µM (≈ 24.8 µg/mL); with E. coli MC4100 (Escherichia coli, MC4100, 16 h), 4.8 µM (≈ 3.13 µg/mL). Moreover, the MIC in the assay on S. aureus MW2 (setting [3]) worked out at 19 µM (≈ 12.4 µg/mL).

For the molecule `CO[C@@H]1[C@@H](OC(N)=O)[C@@H](O)[C@H](Oc2ccc3c(O)c(NS(=O)(=O)c4cccc(-c5ccccc5)c4)c(=O)oc3c2C)OC1(C)C` [Compound 202], the MIC with E. cloacae 13047 (Enterobacter cloacae, 13047) was above 100 µM; in the assay with A. baumannii 19606 (setting [1]) it was above 50 µM; with K. pneumoniae 700721 (Klebsiella pneumoniae, 700721), above 100 µM; with S. aureus RN4220 (setting [2]) it was above 100 µM; in the assay on E. coli 25922 (Escherichia coli, 25922, 16 h) it was above 200 µM; in the assay on E. coli MC4100 (Escherichia coli, MC4100, 16 h), above 200 µM. In addition, the MIC in the assay on S. aureus MW2 (setting [3]) was above 100 µM.

With `CO[C@@H]1[C@@H](OC(=O)c2ccc(C)n2-c2ccccc2)[C@@H](O)[C@H](Oc2ccc3c(O)c(NC(=O)c4ccc(O)c(CC=C(C)C)c4)c(=O)oc3c2C)OC1(C)C` [Compound 210], the MIC was above 100 µM in the assay with E. cloacae 13047 (Enterobacter cloacae, 13047); above 50 µM in the assay on A. baumannii 19606 (setting [1]); above 100 µM in the assay with K. pneumoniae 700721 (Klebsiella pneumoniae, 700721); 33 µM (≈ 24.8 µg/mL) with S. aureus RN4220 (setting [2]); above 200 µM with E. coli 25922 (Escherichia coli, 25922, 16 h); above 200 µM in the assay on E. coli MC4100 (Escherichia coli, MC4100, 16 h). Further, the MIC with S. aureus MW2 (setting [3]) is 33 µM (≈ 24.8 µg/mL).
